Test results reported in US20040063662A1, “Selenophene anti-tumor agents” (priority 1996, published 2004).

What was measured:
CCRF-CEM = assay: NCI human tumor cell panel: CCRF-CEM (Leukemia); assay type: cell-based
HL-60(TB) = assay: NCI human tumor cell panel: HL-60(TB) (Leukemia); assay type: cell-based
K-562 = assay: NCI human tumor cell panel: K-562 (Leukemia); assay type: cell-based
SR = assay: NCI human tumor cell panel: SR (Leukemia); assay type: cell-based
HOP-62 = assay: NCI human tumor cell panel: HOP-62 (Non-Small Cell Lung Cancer); assay type: cell-based
COLO 205 = assay: NCI human tumor cell panel: COLO 205 (Colon Cancer); assay type: cell-based
HCC-2998 = assay: NCI human tumor cell panel: HCC-2998 (Colon Cancer); assay type: cell-based
HCT-15 = assay: NCI human tumor cell panel: HCT-15 (Colon Cancer); assay type: cell-based
KM12 = assay: NCI human tumor cell panel: KM12 (Colon Cancer); assay type: cell-based
SF-268 = assay: NCI human tumor cell panel: SF-268 (CNS Cancer); assay type: cell-based
SNB-19 = assay: NCI human tumor cell panel: SNB-19 (CNS Cancer); assay type: cell-based
MALME-3M = assay: NCI human tumor cell panel: MALME-3M (Melanoma); assay type: cell-based; conditions: Malme-3M
UACC-257 = assay: NCI human tumor cell panel: UACC-257 (Melanoma); assay type: cell-based
UACC-62 = assay: NCI human tumor cell panel: UACC-62 (Melanoma); assay type: cell-based
OVCAR-4 = assay: NCI human tumor cell panel: OVCAR-4 (Ovarian Cancer); assay type: cell-based
OVCAR-5 = assay: NCI human tumor cell panel: OVCAR-5 (Ovarian Cancer); assay type: cell-based
CAKI-1 = assay: NCI human tumor cell panel: CAKI-1 (Renal Cancer); assay type: cell-based
RXF-393 = assay: NCI human tumor cell panel: RXF-393 (Renal Cancer); assay type: cell-based
PC-3 = assay: NCI human tumor cell panel: PC-3 (Prostate Cancer); assay type: cell-based
DU-145 = assay: NCI human tumor cell panel: DU-145 (Prostate Cancer); assay type: cell-based
MCF7 = assay: NCI human tumor cell panel: MCF7 (Breast Cancer); assay type: cell-based
MDA-MB-231/ATCC = assay: NCI human tumor cell panel: MDA-MB-231/ATCC (Breast Cancer); assay type: cell-based; conditions: Homo sapiens, MDA-MB-231, MDA-MB-231/ATCC
T-47D = assay: NCI human tumor cell panel: T-47D (Breast Cancer); assay type: cell-based; conditions: T47D
HOP-92 = assay: NCI human tumor cell panel: HOP-92 (Non-Small Cell Lung Cancer)
[1] = system: panel of sixty different human tumor cell lines; assay: NCI human tumor cell panel: whole panel (mean graph summary)
[2] = read-out: Log10 GI50 (converted)
[3] = read-out: Log10 TGI (converted)

Question: With OCc1ccc(-c2ccc(-c3ccc[se]3)[se]2)[se]1 [compound 675246] as the compound, how does the GI50 (CCRF-CEM; [2]) read?
Answer: Its GI50 is 3.16 µM.

Question: And the IC (TGI) (CCRF-CEM; [3])?
Answer: The IC (TGI) was 12.3 µM.

Question: What about the GI50 (HL-60(TB); [2]) of the same compound?
Answer: Its GI50 is 5.75 µM.

Question: And the IC (TGI) (HL-60(TB); read-out: Log10 TGI)?
Answer: The IC (TGI) was greater than 100 µM.

Question: What about the GI50 (K-562; K562, K-562, read-out: Log10 GI50 (converted)) of the same compound?
Answer: The GI50 was 0.372 µM.

Question: What about the IC (TGI) (K-562; K562, K-562, read-out: Log10 TGI (converted)) of the same compound?
Answer: The IC (TGI) was 7.59 µM.

Question: And the GI50 (SR; [2])?
Answer: Its GI50 is 6.61 µM.

Question: And the IC (TGI) (SR; [3])?
Answer: Its IC (TGI) is greater than 100 µM.

Question: What about the GI50 (HOP-62; HOP-62, read-out: Log10 GI50 (converted)) of the same compound?
Answer: Its GI50 is 7.24 µM.

Question: What about the IC (TGI) (HOP-62; HOP-62, read-out: Log10 TGI (converted)) of the same compound?
Answer: Its IC (TGI) is 20.4 µM.

Question: And the GI50 (COLO 205; COLO 205, read-out: Log10 GI50 (converted))?
Answer: The GI50 was 1 µM.

Question: What about the IC (TGI) (COLO 205; COLO 205, read-out: Log10 TGI (converted)) of the same compound?
Answer: Its IC (TGI) is 4.07 µM.

Question: And the GI50 (HCC-2998; HCC-2998, read-out: Log10 GI50 (converted))?
Answer: The GI50 was 1.23 µM.

Question: And the IC (TGI) (HCC-2998; HCC-2998, read-out: Log10 TGI (converted))?
Answer: Its IC (TGI) is 11.7 µM.

Question: What about the GI50 (HCT-15; HCT-15, read-out: Log10 GI50 (converted)) of the same compound?
Answer: The GI50 was 4.27 µM.

Question: What about the IC (TGI) (HCT-15; HCT-15, read-out: Log10 TGI (converted)) of the same compound?
Answer: Its IC (TGI) is 17.8 µM.

Question: What about the GI50 (KM12; KM12, read-out: Log10 GI50 (converted)) of the same compound?
Answer: Its GI50 is 4.17 µM.

Question: What about the IC (TGI) (KM12; KM12, read-out: Log10 TGI (converted)) of the same compound?
Answer: The IC (TGI) was 17 µM.

Question: What about the GI50 (SF-268; SF-268, read-out: Log10 GI50 (converted)) of the same compound?
Answer: Its GI50 is 4.07 µM.

Question: And the IC (TGI) (SF-268; SF-268, read-out: Log10 TGI (converted))?
Answer: The IC (TGI) was greater than 100 µM.

Question: What about the GI50 (SNB-19; SNB-19, read-out: Log10 GI50 (converted)) of the same compound?
Answer: The GI50 was 12.3 µM.

Question: And the IC (TGI) (SNB-19; SNB-19, read-out: Log10 TGI (converted))?
Answer: Its IC (TGI) is 52.5 µM.

Question: And the GI50 (MALME-3M; [2])?
Answer: The GI50 was 6.17 µM.

Question: What about the IC (TGI) (MALME-3M; [3]) of the same compound?
Answer: The IC (TGI) was 19.5 µM.

Question: What about the GI50 (UACC-257; UACC-257, read-out: Log10 GI50 (converted)) of the same compound?
Answer: Its GI50 is 0.0501 µM.

Question: And the IC (TGI) (UACC-257; UACC-257, read-out: Log10 TGI (converted))?
Answer: Its IC (TGI) is 0.224 µM.

Question: And the GI50 (UACC-62; UACC-62, read-out: Log10 GI50 (converted))?
Answer: Its GI50 is 0.0102 µM.

Question: And the IC (TGI) (UACC-62; UACC-62, read-out: Log10 TGI (converted))?
Answer: The IC (TGI) was 11.2 µM.

Question: And the GI50 (OVCAR-4; OVCAR-4, read-out: Log10 GI50 (converted))?
Answer: The GI50 was 0.575 µM.

Question: What about the IC (TGI) (OVCAR-4; OVCAR-4, read-out: Log10 TGI (converted)) of the same compound?
Answer: Its IC (TGI) is 12.3 µM.

Question: What about the GI50 (OVCAR-5; OVCAR-5, read-out: Log10 GI50 (converted)) of the same compound?
Answer: Its GI50 is 0.182 µM.

Question: And the IC (TGI) (OVCAR-5; OVCAR-5, read-out: Log10 TGI (converted))?
Answer: The IC (TGI) was 25.1 µM.

Question: What about the GI50 (CAKI-1; CAKI-1, read-out: Log10 GI50 (converted)) of the same compound?
Answer: The GI50 was 5.37 µM.

Question: And the IC (TGI) (CAKI-1; CAKI-1, read-out: Log10 TGI (converted))?
Answer: The IC (TGI) was 18.6 µM.

Question: And the GI50 (RXF-393; RXF-393, read-out: Log10 GI50 (converted))?
Answer: Its GI50 is 0.0209 µM.

Question: And the IC (TGI) (RXF-393; RXF-393, read-out: Log10 TGI (converted))?
Answer: The IC (TGI) was 0.0912 µM.

Question: And the GI50 (PC-3; PC-3, read-out: Log10 GI50 (converted))?
Answer: The GI50 was 3.8 µM.

Question: And the IC (TGI) (PC-3; PC-3, read-out: Log10 TGI (converted))?
Answer: Its IC (TGI) is 13.2 µM.

Question: What about the GI50 (DU-145; DU-145, read-out: Log10 GI50 (converted)) of the same compound?
Answer: Its GI50 is 10.2 µM.

Question: What about the IC (TGI) (DU-145; DU-145, read-out: Log10 TGI (converted)) of the same compound?
Answer: The IC (TGI) was 21.9 µM.

Question: What about the GI50 (MCF7; MCF7, read-out: Log10 GI50 (converted)) of the same compound?
Answer: Its GI50 is 0.145 µM.

Question: What about the IC (TGI) (MCF7; MCF7, read-out: Log10 TGI (converted)) of the same compound?
Answer: The IC (TGI) was 3.8 µM.

Question: What about the GI50 (MDA-MB-231/ATCC; [2]) of the same compound?
Answer: Its GI50 is 4.37 µM.

Question: And the IC (TGI) (MDA-MB-231/ATCC; [3])?
Answer: Its IC (TGI) is 33.9 µM.

Question: And the GI50 (T-47D; [2])?
Answer: The GI50 was 3.8 µM.

Question: And the IC (TGI) (T-47D; [3])?
Answer: Its IC (TGI) is 15.1 µM.

Question: What about the GI50 (HOP-92; HOP-92, read-out: Log10 GI50 (converted)) of the same compound?
Answer: Its GI50 is 2.63 µM.

Question: And the IC (TGI) (HOP-92; HOP-92, read-out: Log10 TGI)?
Answer: The IC (TGI) was 11.2 µM.

Question: What about the GI50 ([1]; Homo sapiens, read-out: Log10 GI50, MG_MID, mean over the panel (converted)) of the same compound?
Answer: The GI50 was 1.66 µM.

Question: And the CC50 ([1]; Homo sapiens, read-out: Log10 LC50, MG_MID, mean over the panel (converted))?
Answer: Its CC50 is 51.3 µM.

Question: What about the “Log10 TGI, MG_MID” value ([1]; mean over the panel) of the same compound?
Answer: Its value is −4.91.

Question: And the “Log10 TGI, Delta” value ([1]; whole panel)?
Answer: The value was 2.14.

Question: What about the “Log10 TGI, Range” value ([1]; whole panel) of the same compound?
Answer: Its value is 3.04.
